This assay addresses T1, WIZ protein (HiBit-WIZ fusion protein) (Homo sapiens, UniProt O95785+Q96SW2).
T1 construct: expressed in transfected cells
The assay is described as follows: Quantification of WIZ protein levels in HiBit tag fusion protein assay (WIZ HiBit assay in 293T cells). The format is cell-based. Details: remaining activity / Dmax: dose or concentration left out as unconfirmed. Summed up: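 HiBit-tagged WIZ (N-terminal tag, HSVTK promoter) stably expressed single-copy in 293T cells; 10-point 1:5 compound series, top 25 μM, ~18 h at 37 °C. Lytic HiBit/LgBit luminescence read; Amax = curve-fitted % WIZ-HiBit remaining at 25 μM, DMSO normalized to 100%.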
Background: The HiBiT peptide binds its large partner to form an active luciferase.

Setting [1] is: HEK-293T, 100 − Amax, at 25 uM; 293T cells; read-out: % degradation of WIZ (100 − Amax).
[2] abbreviates: HEK-293T, DMSO-normalized, curve-fitted percentage of WIZ-HiBit remaining at 25 uM; 293T cells; read-out: WIZ Amax.
Where [3] appears, read: WIZ HiBit assay in 293T cells; 10-point, 5-fold dose response, highest concentration 25 μM, about 18 hours; read-out: WIZ AC50.

Where two headings read alike, the source gives them in different places.

T1 sequence (O95785 whole entry, the tested form may be a part): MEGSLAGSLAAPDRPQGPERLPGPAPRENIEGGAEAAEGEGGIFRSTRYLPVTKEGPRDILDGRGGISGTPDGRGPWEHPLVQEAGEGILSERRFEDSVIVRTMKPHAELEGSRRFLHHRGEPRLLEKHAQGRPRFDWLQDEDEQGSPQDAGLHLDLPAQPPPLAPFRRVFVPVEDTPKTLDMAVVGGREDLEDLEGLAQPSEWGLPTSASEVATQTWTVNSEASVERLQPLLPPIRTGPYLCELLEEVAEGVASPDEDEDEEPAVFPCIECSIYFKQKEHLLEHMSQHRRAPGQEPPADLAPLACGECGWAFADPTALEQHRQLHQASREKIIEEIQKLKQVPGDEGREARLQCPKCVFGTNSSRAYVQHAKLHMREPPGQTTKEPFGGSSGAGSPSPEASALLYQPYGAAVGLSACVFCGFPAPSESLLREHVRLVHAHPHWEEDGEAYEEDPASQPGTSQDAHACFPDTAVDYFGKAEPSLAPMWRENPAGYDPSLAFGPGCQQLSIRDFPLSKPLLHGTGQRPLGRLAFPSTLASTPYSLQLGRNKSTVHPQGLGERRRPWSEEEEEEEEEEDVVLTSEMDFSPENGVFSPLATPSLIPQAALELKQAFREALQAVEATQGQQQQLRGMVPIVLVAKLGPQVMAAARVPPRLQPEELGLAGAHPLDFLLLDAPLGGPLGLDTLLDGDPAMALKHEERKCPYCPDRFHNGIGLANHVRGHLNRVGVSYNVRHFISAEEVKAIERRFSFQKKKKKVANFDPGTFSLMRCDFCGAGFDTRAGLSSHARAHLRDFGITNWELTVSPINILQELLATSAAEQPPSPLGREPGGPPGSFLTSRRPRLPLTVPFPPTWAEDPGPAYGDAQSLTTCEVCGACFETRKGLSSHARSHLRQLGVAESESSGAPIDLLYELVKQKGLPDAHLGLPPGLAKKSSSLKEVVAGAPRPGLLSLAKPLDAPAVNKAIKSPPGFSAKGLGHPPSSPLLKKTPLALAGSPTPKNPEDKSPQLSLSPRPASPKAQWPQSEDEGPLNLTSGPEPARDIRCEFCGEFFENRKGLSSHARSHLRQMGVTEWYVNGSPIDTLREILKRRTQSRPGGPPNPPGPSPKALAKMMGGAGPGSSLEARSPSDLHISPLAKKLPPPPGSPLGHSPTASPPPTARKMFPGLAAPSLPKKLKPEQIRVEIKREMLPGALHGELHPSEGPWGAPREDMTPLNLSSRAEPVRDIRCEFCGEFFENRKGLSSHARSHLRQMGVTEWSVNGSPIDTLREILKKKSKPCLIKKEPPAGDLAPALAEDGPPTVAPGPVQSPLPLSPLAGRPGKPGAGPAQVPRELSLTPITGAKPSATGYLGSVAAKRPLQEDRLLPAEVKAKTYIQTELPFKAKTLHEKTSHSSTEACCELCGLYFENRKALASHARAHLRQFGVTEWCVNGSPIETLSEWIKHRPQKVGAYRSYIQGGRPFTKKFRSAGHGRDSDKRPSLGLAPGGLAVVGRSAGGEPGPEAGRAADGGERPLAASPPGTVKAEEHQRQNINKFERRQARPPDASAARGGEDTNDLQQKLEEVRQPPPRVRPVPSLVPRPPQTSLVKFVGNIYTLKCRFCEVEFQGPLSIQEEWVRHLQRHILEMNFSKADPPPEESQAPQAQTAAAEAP
T1 sequence (Q96SW2 whole entry, the tested form may be a part): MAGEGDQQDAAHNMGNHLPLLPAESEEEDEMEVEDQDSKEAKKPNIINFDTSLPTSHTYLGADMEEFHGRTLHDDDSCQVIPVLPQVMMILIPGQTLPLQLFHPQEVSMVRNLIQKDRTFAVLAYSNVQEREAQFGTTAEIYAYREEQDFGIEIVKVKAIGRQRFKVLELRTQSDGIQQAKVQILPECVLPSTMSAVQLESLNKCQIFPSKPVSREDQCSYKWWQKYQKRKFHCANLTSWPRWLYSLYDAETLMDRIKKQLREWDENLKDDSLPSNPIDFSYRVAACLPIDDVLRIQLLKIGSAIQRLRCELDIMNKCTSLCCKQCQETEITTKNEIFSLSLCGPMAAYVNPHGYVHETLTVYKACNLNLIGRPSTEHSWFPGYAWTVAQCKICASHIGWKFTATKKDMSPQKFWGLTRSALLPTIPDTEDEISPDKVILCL
T1 sequence (Q16531 whole entry partner, the tested form may be a part): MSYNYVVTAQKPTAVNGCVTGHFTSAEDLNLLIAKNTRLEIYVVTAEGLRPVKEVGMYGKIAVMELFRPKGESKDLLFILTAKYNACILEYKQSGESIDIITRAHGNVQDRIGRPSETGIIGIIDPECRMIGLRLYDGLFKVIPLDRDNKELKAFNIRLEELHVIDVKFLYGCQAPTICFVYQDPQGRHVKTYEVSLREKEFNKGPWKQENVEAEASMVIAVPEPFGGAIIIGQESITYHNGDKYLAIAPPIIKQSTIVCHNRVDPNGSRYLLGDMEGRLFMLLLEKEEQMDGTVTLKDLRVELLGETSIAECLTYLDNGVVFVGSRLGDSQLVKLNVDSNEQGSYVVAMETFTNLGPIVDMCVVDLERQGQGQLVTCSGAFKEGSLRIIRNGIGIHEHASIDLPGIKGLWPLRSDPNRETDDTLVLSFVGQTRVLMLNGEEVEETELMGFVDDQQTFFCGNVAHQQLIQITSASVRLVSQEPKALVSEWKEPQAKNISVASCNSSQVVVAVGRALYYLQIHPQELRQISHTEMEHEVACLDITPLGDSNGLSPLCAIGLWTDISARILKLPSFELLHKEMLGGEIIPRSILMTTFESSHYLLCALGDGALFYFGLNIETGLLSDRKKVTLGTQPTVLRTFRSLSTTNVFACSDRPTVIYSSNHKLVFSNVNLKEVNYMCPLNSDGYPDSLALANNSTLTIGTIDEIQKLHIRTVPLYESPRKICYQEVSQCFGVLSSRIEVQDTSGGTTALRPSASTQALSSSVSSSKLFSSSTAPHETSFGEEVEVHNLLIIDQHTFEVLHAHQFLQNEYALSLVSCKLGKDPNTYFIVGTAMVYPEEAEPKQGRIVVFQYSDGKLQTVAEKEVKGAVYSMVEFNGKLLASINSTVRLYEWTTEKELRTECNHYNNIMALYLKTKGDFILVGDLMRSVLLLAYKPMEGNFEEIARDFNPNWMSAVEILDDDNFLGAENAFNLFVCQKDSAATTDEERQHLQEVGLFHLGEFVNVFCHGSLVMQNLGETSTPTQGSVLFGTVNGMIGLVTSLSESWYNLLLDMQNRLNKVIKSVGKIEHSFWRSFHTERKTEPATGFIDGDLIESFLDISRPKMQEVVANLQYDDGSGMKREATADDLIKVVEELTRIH

Take `CC(C)(C1CCC(F)(F)CC1)N1CCN(Cc2ccn3ncc(N4CCC(=O)NC4=O)c3c2)CC1` [Example 181, 1-(5-((4-(2-(4,4-difluorocyclohexyl)propan-2-yl)piperazin-1-yl)methyl)pyrazolo[1,5-a]pyridin-3-yl)dihydropyrimidine-2,4(1H,3H)-dione]: the Dmax (HEK-293T, read-out: % degradation of WIZ (100 − Amax)) turned out to be 75%. For the same compound, the remaining activity (HEK-293T, read-out: WIZ Amax) turned out to be 25%. The DC50 (read-out: WIZ AC50; WIZ HiBit assay in 293T cells; 10-point, 5-fold dose response, highest concentration 25 μM, about 18 hours) came out at 30 nM.

Consider `CC(C)(C1CCOCC1)N1CCN(Cc2ccn3ncc(N4CCC(=O)NC4=O)c3c2)CC1` [Example 182, 1-(5-((4-(2-(tetrahydro-2H-pyran-4-yl)propan-2-yl)piperazin-1-yl)methyl)pyrazolo[1,5-a]pyridin-3-yl)dihydropyrimidine-2,4(1H,3H)-dione], for which the Dmax at 25 µM under setting [1] came to 67%. For the same compound, the remaining activity at 25 µM under setting [2] was 33%. Besides, under setting [3], the DC50 amounted to 199 nM.

For the compound `CC(C)(O)CN1CCN(Cc2ccn3ncc(N4CCC(=O)NC4=O)c3c2)CC1` [Example 183, 1-(5-((4-(2-hydroxy-2-methylpropyl)piperazin-1-yl)methyl)pyrazolo[1,5-a]pyridin-3-yl)dihydropyrimidine-2,4(1H,3H)-dione], under setting [1], the Dmax at 25 µM was 65%. For the same compound, under setting [2], the remaining activity at 25 µM worked out at 35%. For the same compound, the DC50 under setting [3] was 468 nM.

In the case of `O=C1CCN(c2cnn3ccc(CN4CCN(C(=O)C5(C(F)(F)F)CC5)CC4)cc23)C(=O)N1` [Example 184, 1-(5-((4-(1-(trifluoromethyl)cyclopropane-1-carbonyl)piperazin-1-yl)methyl)pyrazolo[1,5-a]pyridin-3-yl)dihydropyrimidine-2,4(1H,3H)-dione], the Dmax at 25 µM under setting [1] was found to be 29%. Also, the remaining activity at 25 µM under setting [2] was found to be 71%. Further, the DC50 under setting [3] was determined as 1630 nM.

As for `CC(C)S(=O)(=O)N1CCN(Cc2ccn3ncc(N4CCC(=O)NC4=O)c3c2)CC1` [Example 185, 1-(5-((4-(isopropylsulfonyl)piperazin-1-yl)methyl)pyrazolo[1,5-a]pyridin-3-yl)dihydropyrimidine-2,4(1H,3H)-dione], the Dmax at 25 µM under setting [1] turned out to be 47%. Also, the remaining activity at 25 µM under setting [2] stood at 53%. Moreover, the DC50 under setting [3] is 582 nM.

Turning to `CC(C)CN1CCN(Cc2ccn3ncc(N4CCC(=O)NC4=O)c3c2)CC1` [Example 186, 1-(5-((4-isobutylpiperazin-1-yl)methyl)pyrazolo[1,5-a]pyridin-3-yl)dihydropyrimidine-2,4(1H,3H)-dione], the Dmax at 25 µM under setting [1] amounted to 79%. Moreover, under setting [2], the remaining activity at 25 µM is 21%. Further, under setting [3], the DC50 was found to be 76 nM.

For the compound `O=C1CCN(c2cnn3ccc(CN4CCN(CCC5CCCCC5)CC4)cc23)C(=O)N1` [Example 187, 1-(5-((4-(2-cyclohexylethyl)piperazin-1-yl)methyl)pyrazolo[1,5-a]pyridin-3-yl)dihydropyrimidine-2,4(1H,3H)-dione], the Dmax at 25 µM under setting [1] worked out at 80%. Besides, the remaining activity at 25 µM under setting [2] worked out at 20%. Further, under setting [3], the DC50 stood at 20 nM.

Regarding `O=C1CCN(c2cnn3ccc(CN4CCN(CC5CCC5)CC4)cc23)C(=O)N1` [Example 188, 1-(5-((4-(cyclobutylmethyl)piperazin-1-yl)methyl)pyrazolo[1,5-a]pyridin-3-yl)dihydropyrimidine-2,4(1H,3H)-dione], under setting [1], the Dmax at 25 µM was found to be 77%. For the same compound, the remaining activity at 25 µM under setting [2] was 23%. For the same compound, the DC50 under setting [3] was 71 nM.

As to `O=C1CCN(c2cnn3ccc(CN4CCN(CC5CC5)CC4)cc23)C(=O)N1` [Example 189, 1-(5-((4-(cyclopropylmethyl)piperazin-1-yl)methyl)pyrazolo[1,5-a]pyridin-3-yl)dihydropyrimidine-2,4(1H,3H)-dione], under setting [1], the Dmax at 25 µM was 71%. The remaining activity at 25 µM under setting [2] came to 29%. Moreover, under setting [3], the DC50 was determined as 191 nM.

With `Cc1cccc(CN2CCN(Cc3ccn4ncc(N5CCC(=O)NC5=O)c4c3)CC2)c1` [Example 190, 1-(5-((4-(3-methylbenzyl)piperazin-1-yl)methyl)pyrazolo[1,5-a]pyridin-3-yl)dihydropyrimidine-2,4(1H,3H)-dione], the Dmax at 25 µM under setting [1] is 54%. Further, the remaining activity at 25 µM under setting [2] worked out at 46%. Also, the DC50 under setting [3] is 86 nM.

In the case of `O=C1CCN(c2cnn3ccc(CN4CCN(Cc5cccnc5)CC4)cc23)C(=O)N1` [Example 191, 1-(5-((4-(pyridin-3-ylmethyl)piperazin-1-yl)methyl)pyrazolo[1,5-a]pyridin-3-yl)dihydropyrimidine-2,4(1H,3H)-dione], under setting [1], the Dmax at 25 µM worked out at 50%. The remaining activity at 25 µM under setting [2] was found to be 50%. Under setting [3], the DC50 turned out to be 683 nM.

For `C[C@H]1CN(Cc2ccn3ncc(N4CCC(=O)NC4=O)c3c2)CCN1CC1CCCCC1` [Example 192, (S)-1-(5-((4-(cyclohexylmethyl)-3-methylpiperazin-1-yl)methyl)pyrazolo[1,5-a]pyridin-3-yl)dihydropyrimidine-2,4(1H,3H)-dione], the Dmax at 25 µM under setting [1] came to 86%. Under setting [2], the remaining activity at 25 µM was determined as 14%. Also, under setting [3], the DC50 stood at 19 nM.

As to `C[C@@H]1CC(CN2CCN(Cc3ccn4ncc(N5CCC(=O)NC5=O)c4c3)CC2)C[C@H](C)O1` (stereo partly drawn) [Example 193, 1-(5-((4-(((2R,6S)-2,6-dimethyltetrahydro-2H-pyran-4-yl)methyl)piperazin-1-yl)methyl)pyrazolo[1,5-a]pyridin-3-yl)dihydropyrimidine-2,4(1H,3H)-dione], the Dmax at 25 µM under setting [1] was found to be 86%. Under setting [2], the remaining activity at 25 µM is 14%. The DC50 under setting [3] amounted to 10 nM.

For the compound `O=C1CCN(c2cnn3ccc(CN4CCN(CC56CC7CC(CC(C7)C5)C6)CC4)cc23)C(=O)N1` [Example 194, 1-(5-((4-(((3r,5r,7r)-adamantan-1-yl)methyl)piperazin-1-yl)methyl)pyrazolo[1,5-a]pyridin-3-yl)dihydropyrimidine-2,4(1H,3H)-dione], the Dmax at 25 µM under setting [1] came to 89%. For the same compound, under setting [2], the remaining activity at 25 µM came out at 11%. In addition, the DC50 under setting [3] was 3 nM.

On to `Cn1nccc1CN1CCN(Cc2ccn3ncc(N4CCC(=O)NC4=O)c3c2)CC1` [Example 195, 1-(5-((4-((1-methyl-1H-pyrazol-5-yl)methyl)piperazin-1-yl)methyl)pyrazolo[1,5-a]pyridin-3-yl)dihydropyrimidine-2,4(1H,3H)-dione], for which, under setting [1], the Dmax at 25 µM was found to be 48%. Further, under setting [2], the remaining activity at 25 µM amounted to 52%. Besides, the DC50 under setting [3] turned out to be 2050 nM.

Turning to `Cn1cnc(CN2CCN(Cc3ccn4ncc(N5CCC(=O)NC5=O)c4c3)CC2)c1` [Example 196, 1-(5-((4-((1-methyl-1H-imidazol-4-yl)methyl)piperazin-1-yl)methyl)pyrazolo[1,5-a]pyridin-3-yl)dihydropyrimidine-2,4(1H,3H)-dione], the Dmax at 25 µM under setting [1] turned out to be 41%. In addition, the remaining activity at 25 µM under setting [2] worked out at 59%. Also, the DC50 under setting [3] worked out at 3820 nM.

Regarding `O=C1CCN(c2cnn3ccc(CN4CCN(Cc5cscn5)CC4)cc23)C(=O)N1` [Example 197, 1-(5-((4-(thiazol-4-ylmethyl)piperazin-1-yl)methyl)pyrazolo[1,5-a]pyridin-3-yl)dihydropyrimidine-2,4(1H,3H)-dione], under setting [1], the Dmax at 25 µM was 40%. Further, the remaining activity at 25 µM under setting [2] came to 60%. Also, the DC50 under setting [3] is 1140 nM.

The values above are taken from patent US11787785B2 (NOVARTIS AG, priority 2021, dated 2023).
